Where two headings read alike, the source gives them in different places.
How the values were obtained:
MCF-7 cells [1] = experiment: Flow cytometry cell cycle analysis (PI staining); format: cell-based, human; conditions: for Cell cycle distribution (%) G2-M / Cell cycle distribution (%) S / Cell cycle distribution (%) G0-G1: MCF-7, IC50 concentration, 24 h; for Cell cycle distribution (%) G2-M: control (DMSO) 10.19; for Cell cycle distribution (%) S: control (DMSO) 31.89; for Cell cycle distribution (%) G0-G1: control (DMSO) 57.92; for phase of cell cycle arrest: MCF-7, 24 h
Protocol: It was carried out using MCF-7 cell lines stained with PI and analysed by FACS Calibur flow cytometer as reported[51]^,[58].
The cells were treated with DMSO as a control.

[2] = test system: HCT-116 (colorectal carcinoma); experiment: MTT cytotoxicity assay, HCT-116; format: cell-based; conditions: Homo sapiens, mean ± SD, triplicate
Protocol: (§1) The in vitro anticancer activity of the new benzothiazole hybrids was evaluated by performing MTT assay as in the literature[51]^,[55]^,[56].

MCF-7 cells [3] = experiment: Annexin V-FITC/PI apoptosis assay; format: cell-based, human; conditions: MCF-7, 24 h; untreated control 0.59%
Protocol: The extent of apoptosis was evaluated on MCF-7 cells and Annexin V-FITC/PI apoptosis detection kit following the reported method[51]^,[59].
The development of apoptosis inducers is highly attractive therapeutic strategy for the identification of powerful anticancer drugs[67]^,[68].

[4] = test system: HCT-116, HEPG-2, and MCF-7; experiment: MTT cytotoxicity assay, range over the three cancer cell lines; format: cell-based, human; conditions: range over HCT-116, HEPG-2 and MCF-7, read-out: IC50 range towards the three cell lines
Protocol: as §1

MCF-7 (breast cancer) = experiment: MTT cytotoxicity assay, MCF-7; format: cell-based; conditions: Homo sapiens, MCF7, mean ± SD, triplicate
Protocol: as §1

VEGFR-2 [5] = target: T1, VEGFR-2 (Homo sapiens, UniProt P35968); experiment: In vitro VEGFR-2 kinase inhibitory assay; format: biochemical; conditions: for inhibition at 1 µM: VEGFR-2, compound at 1 μM; for inhibition at 10 µM: VEGFR-2, compound at 10 μM; for % Inhibition 10 nm: VEGFR-2, compound at 10 nm; for % Inhibition 100 nm: VEGFR-2, compound at 100 nm; for IC50: four concentrations 10 nM–10 μM
T1 construct: VEGFR-2 enzyme assay was performed as reported[57]
T1 sequence (P35968 20-1356): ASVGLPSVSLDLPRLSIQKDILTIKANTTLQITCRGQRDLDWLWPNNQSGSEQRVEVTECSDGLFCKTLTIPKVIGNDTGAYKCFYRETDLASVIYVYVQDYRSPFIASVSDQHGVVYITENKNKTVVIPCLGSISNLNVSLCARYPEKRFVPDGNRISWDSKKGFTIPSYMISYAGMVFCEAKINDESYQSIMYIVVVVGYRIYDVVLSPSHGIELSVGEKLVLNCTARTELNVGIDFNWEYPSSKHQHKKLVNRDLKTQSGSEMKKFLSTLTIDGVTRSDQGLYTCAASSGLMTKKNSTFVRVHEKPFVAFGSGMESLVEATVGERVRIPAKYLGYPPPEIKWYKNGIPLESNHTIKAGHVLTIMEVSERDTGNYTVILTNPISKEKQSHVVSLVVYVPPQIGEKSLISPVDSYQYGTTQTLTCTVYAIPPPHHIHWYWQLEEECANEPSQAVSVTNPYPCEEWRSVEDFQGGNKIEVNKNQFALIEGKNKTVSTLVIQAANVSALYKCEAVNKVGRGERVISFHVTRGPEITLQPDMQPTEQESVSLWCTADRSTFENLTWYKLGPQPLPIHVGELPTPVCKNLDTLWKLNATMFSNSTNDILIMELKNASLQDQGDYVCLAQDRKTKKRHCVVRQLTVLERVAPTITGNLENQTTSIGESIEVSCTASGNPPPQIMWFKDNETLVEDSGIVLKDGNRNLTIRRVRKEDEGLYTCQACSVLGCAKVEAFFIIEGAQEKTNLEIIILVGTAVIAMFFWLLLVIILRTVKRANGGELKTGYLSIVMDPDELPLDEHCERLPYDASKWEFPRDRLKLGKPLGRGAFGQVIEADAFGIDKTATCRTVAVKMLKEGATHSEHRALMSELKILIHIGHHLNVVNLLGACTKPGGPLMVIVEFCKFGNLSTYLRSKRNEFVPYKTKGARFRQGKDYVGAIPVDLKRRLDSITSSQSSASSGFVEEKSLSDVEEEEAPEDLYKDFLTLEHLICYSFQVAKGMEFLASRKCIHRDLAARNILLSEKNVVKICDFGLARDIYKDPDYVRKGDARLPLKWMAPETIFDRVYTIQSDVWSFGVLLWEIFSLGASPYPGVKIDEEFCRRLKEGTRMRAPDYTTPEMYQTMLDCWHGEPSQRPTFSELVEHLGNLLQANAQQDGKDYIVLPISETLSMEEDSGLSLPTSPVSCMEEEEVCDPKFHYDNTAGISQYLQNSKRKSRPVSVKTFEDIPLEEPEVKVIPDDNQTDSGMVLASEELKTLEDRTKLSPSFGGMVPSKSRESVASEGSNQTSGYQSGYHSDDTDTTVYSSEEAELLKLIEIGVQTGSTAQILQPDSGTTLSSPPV

[6] = test system: WI-38 normal fibroblast cells; experiment: MTT cytotoxicity against normal cells; format: cell-based; conditions: Homo sapiens, mean ± SD, triplicate
Protocol: as §1
All tested compounds were studied for their cytotoxic activity on the WI-38 normal fibroblast WI-38 cells to assess their therapeutic safety.

[7] = test system: HEPG-2 (hepatocellular carcinoma); experiment: MTT cytotoxicity assay, HepG-2; format: cell-based; conditions: Homo sapiens, HepG2, mean ± SD, triplicate
Protocol: as §1

VEGFR-2 [8] = target: T1, VEGFR-2; conditions: cited from earlier work

| SMILES | Cell cycle distribution (%) G2-M (MCF-7 cells [1]) [%] | Cell cycle distribution (%) S (MCF-7 cells [1]) [%] | Cell cycle distribution (%) G0-G1 (MCF-7 cells [1]) [%] | IC50 [2] [µM] | ratio of total apoptotic cells (early and late apoptotic cells) (MCF-7 cells [3]) [%] | IC50 ([4]; Homo sapiens) [µM] | IC50 (MCF-7 (breast cancer)) [µM] | inhibition at 1 µM (VEGFR-2 [5]) [%] | inhibition at 10 µM (VEGFR-2 [5]) [%] | % Inhibition 10 nm (VEGFR-2 [5]) [%] | % Inhibition 100 nm (VEGFR-2 [5]) [%] | IC50 (VEGFR-2 [5]) [nM] | IC50 [6] [µM] | IC50 [7] [µM] | melting point [°C] | phase of cell cycle arrest (MCF-7 cells [1]) | IC50 [4] [µM] | IC50 (VEGFR-2 [8]) [µM] |
| --- | --- | --- | --- | --- | --- | --- | --- | --- | --- | --- | --- | --- | --- | --- | --- | --- | --- | --- |
| O=C(CN1C(=O)SC(=Cc2ccc(F)cc2)C1=O)Nc1nc2ccc([N+](=O)[O-])cc2s1 [4a, 2-(5-(4-Fluorobenzylidene)-2,4-dioxothiazolidin-3-yl)-N-(6-nitrobenzo[d]thiazol-2-yl)acetamide] | 3.28 | 49.85 | 46.87 | 5.61 ± 0.3 | 49.71 | 3.84 to 9.04 | 3.84 ± 0.1 | 77.9 | 92 | 31.27 | 45.14 | 91 | 45.2 ± 2.6 | 7.92 ± 0.6 | – | – | – | – |
| COc1ccc(C=C2SC(=O)N(CC(=O)Nc3nc4ccc([N+](=O)[O-])cc4s3)C2=O)cc1 [4b, 2-(5-(4-Methoxybenzylidene)-2,4-dioxothiazolidin-3-yl)-N-(6-nitrobenzo[d]thiazol-2-yl)acetamide] | – | – | – | 29.9 ± 2.2 | – | 22.3 to 34.7 | 22.3 ± 1.7 | – | – | – | – | – | 77.6 ± 4.3 | 34.7 ± 2.4 | – | – | – | – |
| O=C(CN1C(=O)SC(=Cc2ccc(Br)cc2)C1=O)Nc1nc2ccc([N+](=O)[O-])cc2s1 [4c, 2-(5-(4-Bromobenzylidene)-2,4-dioxothiazolidin-3-yl)-N-(6-nitrobenzo[d]thiazol-2-yl)acetamide] | – | – | – | 47.9 ± 2.9 | – | 47.9 to 65.5 | 50.1 ± 2.9 | – | – | – | – | – | 28.9 ± 2.2 | 65.5 ± 3.6 | – | – | – | – |
| Cc1ccc(C=C2SC(=O)N(CC(=O)Nc3nc4ccc([N+](=O)[O-])cc4s3)C2=O)cc1 [4d, 2-(5-(4-Methylbenzylidene)-2,4-dioxothiazolidin-3-yl)-N-(6-nitrobenzo[d]thiazol-2-yl)acetamide] | – | – | – | 26.8 ± 2.1 | – | 15.5 to 26.8 | 15.5 ± 1.2 | – | – | – | – | – | 74 ± 4.1 | 21.1 ± 1.8 | 201 to 203 | – | – | – |
| COc1cc(C=C2SC(=O)N(CC(=O)Nc3nc4ccc([N+](=O)[O-])cc4s3)C2=O)cc(OC)c1OC [4e, 2-(2,4-Dioxo-5–(3,4,5-trimethoxybenzylidene)thiazolidin-3-yl)-N-(6-nitrobenzo[d]thiazol-2-yl)acetamide] | 4.99 | 42.66 | 52.35 | 8.24 ± 0.6 | 42.17 | 3.84 to 9.04 | 6.11 ± 0.4 | 70.5 | 88.7 | 24.09 | 42.84 | 161 | 32.8 ± 2.3 | 9.04 ± 0.8 | – | S phase | 6.11 to 9.04 | – |
| Cc1ccc(-c2nc(SCC(=O)Nc3nc4ccc([N+](=O)[O-])cc4s3)[nH]c(=O)c2C#N)cc1 [8a] | 2.53 | 36.11 | 61.36 | 13.9 ± 1 | 30.75 | 10.9 to 18.1 | 10.9 ± 0.8 | 70.1 | 83.5 | 16.31 | 37.14 | 266 | 53.1 ± 3.1 | 18.1 ± 1.4 | – | G1/S phase | – | – |
| CNC(=O)c1cc(Oc2ccc(NC(=O)Nc3ccc(Cl)c(C(F)(F)F)c3)cc2)ccn1 [SOR, Sorafenib, reference compound] | – | – | – | 5.23 ± 0.3 | – | – | 4.17 ± 0.2 | – | – | – | – | – | 6.72 ± 0.5 | 4.5 ± 0.2 | – | – | – | – |
| O=C(CN1C(=O)S/C(=C\c2ccc(F)cc2)C1=O)Nc1nc2ccccc2s1 [X] | – | – | – | – | – | – | – | – | – | – | – | – | – | – | – | – | – | 0.19 |
